Laboratory results taken from patent US20190375786A1, “STABLE PEPTIDES AND METHODS OF USE THEREOF” (Fred Hutchinson Cancer Research Center, priority 2016, published 2019).
Positions of bridges follow the written chain, without caps; N, C: chain ends. Residues, ends and D or L forms follow the SMILES beside them.

Columns and labels:
[1] = biological target: pepsin (Sus scrofa, UniProt P00791); test: Pepsin digestion resistance in simulated gastric fluid, RP-HPLC; format: in vitro ADME, porcine; design: purchased Sigma Aldrich P7012; settings: 500 U/ml pepsin in SGF pH 1.05, 30 minutes at 37.5° C.; HPLC peak vs untreated peptide
Chain of pepsin (P00791 60-385): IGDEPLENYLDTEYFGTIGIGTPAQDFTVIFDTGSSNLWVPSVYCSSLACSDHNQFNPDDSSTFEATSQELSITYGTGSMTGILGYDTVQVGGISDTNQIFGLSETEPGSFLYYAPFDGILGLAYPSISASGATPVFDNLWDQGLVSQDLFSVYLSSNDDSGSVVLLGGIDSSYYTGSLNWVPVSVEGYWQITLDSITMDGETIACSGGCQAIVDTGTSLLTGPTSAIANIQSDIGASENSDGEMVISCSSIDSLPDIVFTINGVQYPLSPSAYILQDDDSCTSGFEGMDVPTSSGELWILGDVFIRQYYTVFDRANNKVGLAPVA
Summary of the method: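 Digestion resistance read by reversed-phase HPLC (C-18, 0.1% TFA, 5–45% acetonitrile over 10 min; 214/280 nm) after 12.5 μg peptide spent 30 min at 37.5 °C in pH 1.05 simulated gastric fluid, with or without 500 U/ml pepsin. Some samples quenched with Tris base and DTT.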

[2] = biological target: trypsin (Sus scrofa, UniProt P00761); test: Trypsin digestion resistance of soluble peptide, RP-HPLC; format: in vitro ADME, porcine; design: purchased Sigma Aldrich 6567; settings: 500 U/ml trypsin, 30 minutes at 37.5° C.; HPLC peak vs untreated peptide
Chain of trypsin (P00761 9-231): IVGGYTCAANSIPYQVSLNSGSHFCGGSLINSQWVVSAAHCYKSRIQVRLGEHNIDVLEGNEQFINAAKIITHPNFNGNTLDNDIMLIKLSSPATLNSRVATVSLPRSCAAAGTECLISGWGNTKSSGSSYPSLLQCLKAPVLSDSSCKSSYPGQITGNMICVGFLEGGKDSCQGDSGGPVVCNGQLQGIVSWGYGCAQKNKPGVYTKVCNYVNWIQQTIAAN
Summary of the method: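 Read-out was RP-HPLC (C-18, water/acetonitrile with 0.1% TFA, 5-45% over 10 min) of peptide left after trypsin treatment. Digest: 12.5 μg peptide, 500 U/ml porcine trypsin, PBS, 37.5° C for 30 min, stopped by soybean trypsin inhibitor; samples then reduced (10 mM DTT) or left non-reduced.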

Compound	Resistance to Pepsin (500 U/ml) [1]	Resistance to Trypsin (500 U/ml) [2]
CC(C)[C@H](NC(=O)[C@H](CO)NC(=O)CN)C(=O)N[C@@H](CO)C(=O)N[C@H]1CSSC[C@@H]2NC(=O)[C@H](CCCCN)NC(=O)[C@H](C)NC(=O)[C@H](CCCNC(=N)N)NC(=O)[C@H](CCC(N)=O)NC(=O)[C@H](CC(=O)O)NC(=O)[C@H](CCCCN)NC(=O)[C@H]([C@@H](C)O)NC(=O)[C@H](C)NC(=O)[C@@H]3CSSC[C@@H](C(=O)N[C@@H](CCC(=O)O)C(=O)N4CCC[C@H]4C(=O)N[C@@H](CCCCN)C(=O)O)NC(=O)[C@H](C(C)C)NC(=O)[C@H](CSSC[C@H](NC(=O)[C@H](CC(=O)O)NC(=O)[C@H](CCC(=O)O)NC1=O)C(=O)N1CCC[C@H]1C(=O)N[C@@H](CCC(=O)O)C(=O)N[C@@H](Cc1c[nH]cn1)C(=O)N3)NC(=O)[C@H](CCCNC(=N)N)NC(=O)[C@H](CC(=O)O)NC(=O)[C@H](CC(N)=O)NC(=O)[C@H](CC(=O)O)NC2=O [compound 54] (H-GSVSCEDCPEHCATKDQRAKCDNDRCVCEPK-OH; disulfide 5-21, 8-26, 12-28)	High (A peptide classified as high indicates that the majority (at least 75%) of the HPLC peak of the treated peptide is still present as compared to the HPLC peak of the untreated peptide)	Low (A peptide classified as low indicates that the majority (over 75%) of the HPLC peak of the treated peptide disappeared as compared to the HPLC peak of the untreated peptide)
CC[C@H](C)[C@H](NC(=O)[C@@H](NC(=O)[C@@H](NC(=O)[C@H](CO)NC(=O)CN)C(C)C)C(C)C)C(=O)NCC(=O)N[C@@H](CCC(N)=O)C(=O)N[C@@H](CCCNC(=N)N)C(=O)N[C@H]1CSSC[C@@H]2NC(=O)[C@H](CCCCN)NC(=O)CNC(=O)[C@H]([C@@H](C)O)NC(=O)[C@H](C)NC(=O)[C@H](CCCCN)NC(=O)CNC(=O)[C@H](C(C)C)NC(=O)[C@H](CC(C)C)NC(=O)[C@H](CCCCN)NC(=O)[C@H](CCCCN)NC(=O)[C@@H]3CSSC[C@@H](C(=O)O)NC(=O)[C@H](CC(=O)O)NC(=O)[C@H](CSSC[C@H](NC(=O)[C@H](CC(=O)O)NC(=O)[C@@H]4CCCN4C(=O)[C@H](CO)NC(=O)[C@H](CCCNC(=N)N)NC(=O)[C@H](Cc4ccc(O)cc4)NC1=O)C(=O)N[C@@H](Cc1ccc(O)cc1)C(=O)N[C@@H](CO)C(=O)N[C@@H](C)C(=O)N3)NC(=O)[C@H](CCCNC(=N)N)NC(=O)CNC(=O)[C@H](CC(N)=O)NC(=O)[C@H]([C@@H](C)O)NC2=O [compound 36] (H-GSVVIGQRCYRSPDCYSACKKLVGKATGKCTNGRCDC-OH; disulfide 9-30, 15-35, 19-37)	High (A peptide classified as high indicates that the majority (at least 75%) of the HPLC peak of the treated peptide is still present as compared to the HPLC peak of the untreated peptide)	Low (A peptide classified as low indicates that the majority (over 75%) of the HPLC peak of the treated peptide disappeared as compared to the HPLC peak of the untreated peptide)
CC[C@H](C)[C@@H]1NC(=O)[C@@H]2CSSC[C@@H]3NC(=O)[C@H](CCC(N)=O)NC(=O)[C@H](CO)NC(=O)[C@H]([C@@H](C)O)NC(=O)[C@H](CC(N)=O)NC(=O)[C@H](CO)NC(=O)[C@@H](NC(=O)[C@H](CCCCN)NC(=O)[C@H](CCCCN)NC(=O)[C@H](CC(N)=O)NC(=O)[C@@H](NC(=O)[C@H](CO)NC(=O)[C@@H](NC(=O)[C@H](CCC(N)=O)NC(=O)[C@H](CO)NC(=O)CN)C(C)C)[C@@H](C)O)CSSC[C@H](NC(=O)[C@H](CCCCN)NC(=O)CNC(=O)[C@H](C)NC(=O)[C@H](C)NC(=O)[C@H](C(C)C)NC(=O)CNC(=O)[C@H](C(C)C)NC(=O)[C@H](C(C)C)NC(=O)[C@H](CCCCN)NC(=O)[C@H](CCC(=O)O)NC(=O)[C@H](CSSC[C@@H](C(=O)N[C@@H](Cc4ccc(O)cc4)C(=O)N4CCC[C@H]4C(=O)O)NC1=O)NC(=O)[C@H]([C@@H](C)O)NC(=O)[C@H](CCCCN)NC(=O)[C@H](Cc1ccc(O)cc1)NC3=O)C(=O)N[C@@H](CCSC)C(=O)N[C@@H](CC(N)=O)C(=O)NCC(=O)N[C@@H](CCCCN)C(=O)N2 [compound 18] (H-GSQVSTNKKCSNTSQCYKTCEKVVGVAAGKCMNGKCICYP-OH; disulfide 10-31, 16-36, 20-38)	High (A peptide classified as high indicates that the majority (at least 75%) of the HPLC peak of the treated peptide is still present as compared to the HPLC peak of the untreated peptide)	Low (A peptide classified as low indicates that the majority (over 75%) of the HPLC peak of the treated peptide disappeared as compared to the HPLC peak of the untreated peptide)
CC[C@H](C)[C@H](NC(=O)CNC(=O)[C@@H](NC(=O)[C@H](CO)NC(=O)[C@@H](NC(=O)[C@H](CO)NC(=O)CN)[C@@H](C)CC)[C@@H](C)CC)C(=O)N[C@@H](CCCCN)C(=O)N[C@H]1CSSC[C@@H]2NC(=O)[C@H](Cc3ccc(O)cc3)NC(=O)CNC(=O)[C@H]([C@@H](C)O)NC(=O)[C@H](Cc3ccccc3)NC(=O)[C@H](Cc3ccc(O)cc3)NC(=O)[C@H](CCCCN)NC(=O)[C@H](CCCNC(=N)N)NC(=O)[C@H]([C@@H](C)CC)NC(=O)[C@H](CCCNC(=N)N)NC(=O)[C@@H]3CSSC[C@@H](C(=O)N[C@@H](CO)C(=O)NCC(=O)O)NC(=O)[C@H](Cc4c[nH]cn4)NC(=O)[C@H](CSSC[C@H](NC(=O)[C@H](CC(C)C)NC(=O)[C@H](CC(=O)O)NC(=O)[C@H]([C@@H](C)CC)NC(=O)[C@H](CO)NC(=O)[C@@H]4CCCN4C(=O)[C@H](CO)NC1=O)C(=O)N[C@@H](CCC(=O)O)C(=O)NCC(=O)N[C@@H](CCC(N)=O)C(=O)N3)NC(=O)[C@H]([C@@H](C)O)NC(=O)[C@H](CC(=O)O)NC(=O)CNC(=O)[C@H](CO)NC2=O [compound 3] (H-GSISIGIKCSPSIDLCEGQCRIRKYFTGYCSGDTCHCSG-OH; disulfide 9-30, 16-35, 20-37)	Moderate (A peptide classified as medium indicates that about half (between 25% and 75%) of the HPLC peak of the treated peptide disappeared as compared to the HPLC peak of the untreated peptide)	Low (A peptide classified as low indicates that the majority (over 75%) of the HPLC peak of the treated peptide disappeared as compared to the HPLC peak of the untreated peptide)
CC[C@H](C)[C@@H]1NC(=O)[C@@H]2CSSC[C@H](NC(=O)[C@H](C)NC(=O)CNC(=O)[C@H](CCC(=O)O)NC(=O)[C@@H](NC(=O)[C@H](CCCCN)NC(=O)[C@H](Cc3ccccc3)NC(=O)[C@H](CC(N)=O)NC(=O)[C@H](CO)NC(=O)CN)C(C)C)C(=O)N[C@@H](CO)C(=O)N[C@@H](CCCCN)C(=O)N3CCC[C@H]3C(=O)N[C@H]3CSSC[C@H](NC(=O)[C@H](CCCNC(=N)N)NC(=O)CNC(=O)[C@H](CC(N)=O)NC1=O)C(=O)N[C@@H](Cc1c[nH]cn1)C(=O)N[C@H](C(=O)N[C@@H](Cc1ccc(O)cc1)C(=O)N[C@@H](Cc1ccc(O)cc1)C(=O)O)CSSC[C@H](NC(=O)[C@H](Cc1ccc(O)cc1)NC(=O)[C@H](CCCCN)NC(=O)[C@H](CCCNC(=N)N)NC3=O)C(=O)N[C@@H]([C@@H](C)CC)C(=O)N[C@@H](CC(=O)O)C(=O)N[C@@H](CCCCN)C(=O)NCC(=O)N[C@@H](C)C(=O)N[C@@H](CCCNC(=N)N)C(=O)N[C@@H](CC(N)=O)C(=O)NCC(=O)N[C@@H](CCCCN)C(=O)N2 [compound 5] (H-GSNFKVEGACSKPCRKYCIDKGARNGKCINGRCHCYY-OH; disulfide 10-28, 14-33, 18-35)	Moderate (A peptide classified as medium indicates that about half (between 25% and 75%) of the HPLC peak of the treated peptide disappeared as compared to the HPLC peak of the untreated peptide)	Moderate (A peptide classified as medium indicates that about half (between 25% and 75%) of the HPLC peak of the treated peptide disappeared as compared to the HPLC peak of the untreated peptide)
CC[C@H](C)[C@@H]1NC(=O)[C@@H]2CSSC[C@H](NC(=O)[C@H](CCCCN)NC(=O)[C@@H](NC(=O)[C@H](CC(N)=O)NC(=O)[C@@H](NC(=O)[C@@H]3CCCN3C(=O)[C@@H](NC(=O)CNC(=O)[C@H](CO)NC(=O)CN)C(C)C)[C@@H](C)CC)C(C)C)C(=O)N[C@@H](CCCNC(=N)N)C(=O)NCC(=O)N[C@@H](CO)C(=O)N[C@@H](CCCNC(=N)N)C(=O)N[C@@H](CC(=O)O)C(=O)N[C@H]3CSSC[C@H](NC(=O)[C@H](CCCCN)NC(=O)[C@H](CO)NC(=O)[C@H](CC(N)=O)NC1=O)C(=O)N[C@@H](Cc1c[nH]cn1)C(=O)N[C@H](C(=O)N[C@H](C(=O)N1CCC[C@H]1C(=O)O)[C@@H](C)O)CSSC[C@H](NC(=O)[C@@H]1CCCN1C(=O)[C@H](CC(=O)O)NC(=O)[C@H](CC(C)C)NC3=O)C(=O)N[C@@H](CCCCN)C(=O)N[C@@H](CCCCN)C(=O)N[C@@H](C)C(=O)NCC(=O)N[C@@H](CCSC)C(=O)N[C@@H](CCCNC(=N)N)C(=O)N[C@@H](Cc1ccccc1)C(=O)NCC(=O)N[C@@H](CCCCN)C(=O)N2 [compound 27] (H-GSGVPINVKCRGSRDCLDPCKKAGMRFGKCINSKCHCTP-OH; disulfide 10-30, 16-35, 20-37)	High (A peptide classified as high indicates that the majority (at least 75%) of the HPLC peak of the treated peptide is still present as compared to the HPLC peak of the untreated peptide)	High (A peptide classified as high indicates that the majority (at least 75%) of the HPLC peak of the treated peptide is still present as compared to the HPLC peak of the untreated peptide)
